This is an account of results in PubChem BioAssay AID698 (NMMLSC, 2007).

The source made the active and inactive calls. The rule behind the calls is not given here.

N-formyl peptide receptor 2 (Homo sapiens), sequence (P25090 whole entry, looked up): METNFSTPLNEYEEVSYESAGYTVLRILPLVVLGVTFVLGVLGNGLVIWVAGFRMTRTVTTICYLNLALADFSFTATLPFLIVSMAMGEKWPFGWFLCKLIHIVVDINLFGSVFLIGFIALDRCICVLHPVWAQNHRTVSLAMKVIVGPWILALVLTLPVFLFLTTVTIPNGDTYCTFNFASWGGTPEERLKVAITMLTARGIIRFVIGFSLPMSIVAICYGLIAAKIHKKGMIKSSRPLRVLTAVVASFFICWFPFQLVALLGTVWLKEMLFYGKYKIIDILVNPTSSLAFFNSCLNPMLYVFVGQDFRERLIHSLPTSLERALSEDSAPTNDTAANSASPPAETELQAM

The experiment has as its target N-formyl peptide receptor 2 (Homo sapiens) (UniProt P25090). Put plainly: FPRL1 antagonists blocking calcium signaling, confirmation, cell-based, calcium response (AID 698). The following applies: FPRL1-expressing cells, ligand-induced calcium response, antagonist mode; stronger effect = higher value; concentration not given here.
In the case of `CCOc1cc(C(=O)NCc2nnc(SCC(=O)OC)n2C)cc(OCC)c1OCC`, the inhibition is 0% (inactive).

Regarding `CCOC(=O)CSc1nnc(CNC(=O)c2cc(OCC)c(OCC)c(OCC)c2)n1C`, the inhibition was 0% (inactive).

Consider `O=C(O)CCCNc1cc(N2CCC3(CC2)OCCO3)c2noc3c2c1C(=O)c1ccccc1-3`, for which the inhibition was 0% (inactive).

Take `Nc1ccc(Nc2ccccc2N)cc1`: the inhibition is 69.5% (inactive).

On to `COc1ccc(-c2cn3cccnc3n2)cc1NC(=O)C1CC1`, for which the inhibition is 98.1%.

Consider `CC(=O)OCCNc1cc(N2CCN(C)CC2)c2noc3c2c1C(=O)c1ccccc1-3`, for which the inhibition was 93.4%.

As for `COc1ccc(-c2cc(C(F)(F)F)nc(N3CCN(Cc4ccccc4)CC3)n2)cc1OC`, the inhibition was 96.3%.

Usually inhibition stands for how much of the control response was suppressed.
